The text below walks through data of patent US12440541B2, “Methods for expanding and activating γσ T cells for the treatment of cancer and related malignancies” (priority 2017, dated 2025).

The test concerns γδ T cells. Briefly: γδ T cell expansion in defined medium. Particulars: defined medium with IL-2, IL-15, Amphotericin B. The format is cell-based, human.

SMILES strings stand for the structures.

As for `O=P(O)(O)C(O)(Cn1ccnc1)P(=O)(O)O` [Zoledronate, Zoledronic acid], the “fold increase in absolute number of γδ T cells” value was 3,350 fold (Donor 20, Day 0 to Day 17); 11,060 fold (Donor 20, Day 0 to Day 22); 31,666 fold (Donor 20, Day 0 to Day 29); 4,633 fold (Donor 21, Day 0 to Day 17); 12,320 fold (Donor 21, Day 0 to Day 22); 32,833 fold (Donor 21, Day 0 to Day 29).
